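Values below derive from 48-hour exposures of cells grown in 96-well plates, with endpoints linearly interpolated between the two concentrations bracketing the appropriate inhibition level. At the GI50, growth is halved.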 Calls of active or inactive are those of the source. No stated cut-off is given here; in the data, active = GI50 up to about 1.1 µM and inactive = higher.
Key:
Experiment in all cases: inhibition of tumour cell growth, NCI panel, 48 h
OVCAR-3 = tested on: OVCAR-3
NCI/ADR-RES = tested on: NCI/ADR-RES
BT-549 = tested on: BT-549
SN12C = tested on: SN12C
SK-OV-3 = tested on: SK-OV-3
DU-145 = tested on: DU-145
SF-295 = tested on: SF-295
LOX IMVI = tested on: LOX IMVI
MCF7 = tested on: MCF7
HL-60 = tested on: HL-60
UACC-62 = tested on: UACC-62
RPMI-8226 = tested on: RPMI-8226
PC-3 = tested on: PC-3
HOP-92 = tested on: HOP-92
Malme-3M = tested on: Malme-3M
RXF 393 = tested on: RXF 393
HCT-116 = tested on: HCT-116
NCI-H522 = tested on: NCI-H522
T47D = tested on: T47D
HCC 2998 = tested on: HCC 2998

SMILES	GI50 (OVCAR-3)	GI50 (NCI/ADR-RES)	GI50 (BT-549)	GI50 (SN12C)	GI50 (SK-OV-3)	GI50 (DU-145)	GI50 (SF-295)	GI50 (LOX IMVI)	GI50 (MCF7)	GI50 (HL-60)	GI50 (UACC-62)	GI50 (RPMI-8226)	GI50 (PC-3)	GI50 (HOP-92)	GI50 (Malme-3M)	GI50 (RXF 393)	GI50 (HCT-116)	GI50 (NCI-H522)	GI50 (T47D)	GI50 (HCC 2998)
c1ccc(NCCSc2nc3ccccc3s2)cc1	88.3 µM (inactive)	35.9 µM (inactive)	34.8 µM (inactive)	46.1 µM (inactive)	> 100 µM (inactive)	97.1 µM (inactive)	> 100 µM (inactive)	45.5 µM (inactive)	25.8 µM (inactive)	32.1 µM (inactive)	66.5 µM (inactive)	26.5 µM (inactive)	55.2 µM (inactive)	41.1 µM (inactive)	44.9 µM (inactive)	55.7 µM (inactive)	37.3 µM (inactive)	37.2 µM (inactive)	36.2 µM (inactive)	–
N#Cc1c(-c2ccccc2)cc(Nc2ccc(Cl)cc2)n2c1nc1ccccc12	1.85 µM (inactive)	2.44 µM (inactive)	4.59 µM (inactive)	2.28 µM (inactive)	2.72 µM (inactive)	3.45 µM (inactive)	3.4 µM (inactive)	3.75 µM (inactive)	3.48 µM (inactive)	–	0.975 µM (active)	1.22 µM (inactive)	2.56 µM (inactive)	0.397 µM (active)	5.16 µM (inactive)	4.35 µM (inactive)	1.96 µM (inactive)	1.91 µM (inactive)	2.71 µM (inactive)	3.78 µM (inactive)
CN1CCN(CC(=O)N2CCCn3c2nc2ccccc2c3=O)CC1	> 100 µM (inactive)	> 100 µM (inactive)	> 100 µM (inactive)	> 100 µM (inactive)	> 100 µM (inactive)	> 100 µM (inactive)	> 100 µM (inactive)	> 100 µM (inactive)	> 100 µM (inactive)	> 100 µM (inactive)	> 100 µM (inactive)	> 100 µM (inactive)	> 100 µM (inactive)	48.2 µM (inactive)	> 100 µM (inactive)	–	> 100 µM (inactive)	> 100 µM (inactive)	> 100 µM (inactive)	> 100 µM (inactive)
Nc1nc(=O)n(C2CC(O)C(CO)O2)c2nc(-c3ccc(-c4ccccc4)cc3)cnc12 (stereo unspecified)	–	> 100 µM (inactive)	> 100 µM (inactive)	62.7 µM (inactive)	> 100 µM (inactive)	> 100 µM (inactive)	48.5 µM (inactive)	38.8 µM (inactive)	15.5 µM (inactive)	–	25.3 µM (inactive)	> 100 µM (inactive)	37.6 µM (inactive)	56.2 µM (inactive)	41.7 µM (inactive)	31.2 µM (inactive)	> 100 µM (inactive)	22.1 µM (inactive)	18.6 µM (inactive)	41.9 µM (inactive)
COc1cc(C(=O)N(C(=S)OCc2ccccn2)c2ccccc2)cc(OC)c1OC	> 100 µM (inactive)	39.4 µM (inactive)	41 µM (inactive)	43 µM (inactive)	> 100 µM (inactive)	33.8 µM (inactive)	–	35 µM (inactive)	33.7 µM (inactive)	27 µM (inactive)	56.4 µM (inactive)	26.8 µM (inactive)	74.3 µM (inactive)	–	8.22 µM (inactive)	42.2 µM (inactive)	44.1 µM (inactive)	–	34.9 µM (inactive)	–
CC(=O)c1c(-c2ccccc2)c(-c2ccc(OCCN(C)C)cc2)n2ccccc12	16.6 µM (inactive)	14.5 µM (inactive)	14.9 µM (inactive)	16 µM (inactive)	19.2 µM (inactive)	16.8 µM (inactive)	17.2 µM (inactive)	15.7 µM (inactive)	18 µM (inactive)	16.3 µM (inactive)	15.7 µM (inactive)	20.8 µM (inactive)	16.2 µM (inactive)	10.1 µM (inactive)	11.9 µM (inactive)	–	13.3 µM (inactive)	14.1 µM (inactive)	16.7 µM (inactive)	14.6 µM (inactive)
CCN(C(=S)N[C@H](C(=O)N[C@@H](C)C(=O)OC)C(C)C)c1ccccc1	> 100 µM (inactive)	> 100 µM (inactive)	> 100 µM (inactive)	66.8 µM (inactive)	> 100 µM (inactive)	> 100 µM (inactive)	> 100 µM (inactive)	52.6 µM (inactive)	87.3 µM (inactive)	–	76.7 µM (inactive)	63.2 µM (inactive)	64.9 µM (inactive)	51.4 µM (inactive)	21.8 µM (inactive)	62.1 µM (inactive)	70.8 µM (inactive)	16.6 µM (inactive)	> 100 µM (inactive)	> 100 µM (inactive)
C/C1=C\CC[C@@]2(C)O[C@@H]2C[C@@H]2[C@H](C/C(C)=C/CC1)OC(=O)C21CC1	> 100 µM (inactive)	> 100 µM (inactive)	44.9 µM (inactive)	60.3 µM (inactive)	> 100 µM (inactive)	59.7 µM (inactive)	> 100 µM (inactive)	–	53.5 µM (inactive)	24.2 µM (inactive)	90.8 µM (inactive)	12.1 µM (inactive)	> 100 µM (inactive)	–	> 100 µM (inactive)	> 100 µM (inactive)	35 µM (inactive)	–	> 100 µM (inactive)	> 100 µM (inactive)
CCOC(=O)/C(=N\Nc1ccc(-n2c(C)nc3ccccc3c2=O)cc1)C(C)=O	21.7 µM (inactive)	18.1 µM (inactive)	33.3 µM (inactive)	> 100 µM (inactive)	74 µM (inactive)	80.2 µM (inactive)	33 µM (inactive)	32.1 µM (inactive)	37.7 µM (inactive)	14 µM (inactive)	29.8 µM (inactive)	11.6 µM (inactive)	34.8 µM (inactive)	11.9 µM (inactive)	–	–	36 µM (inactive)	–	21 µM (inactive)	–
Cc1cc(=O)oc2c(C)c3oc(CBr)cc3cc12	35.7 µM (inactive)	19.4 µM (inactive)	15.3 µM (inactive)	19.5 µM (inactive)	27.4 µM (inactive)	33.6 µM (inactive)	17.1 µM (inactive)	15.3 µM (inactive)	25.2 µM (inactive)	18.3 µM (inactive)	18.5 µM (inactive)	12.2 µM (inactive)	16.9 µM (inactive)	–	19.2 µM (inactive)	–	18.5 µM (inactive)	15.2 µM (inactive)	17.3 µM (inactive)	15.8 µM (inactive)
CC(=O)OCC1OC(N2C(c3ccccc3)=CC(c3ccccc3)C(C#N)=C2S)C(OC(C)=O)C(OC(C)=O)C1OC(C)=O (stereo unspecified)	16.9 µM (inactive)	14.3 µM (inactive)	5.57 µM (inactive)	3.56 µM (inactive)	–	26.4 µM (inactive)	2.04 µM (inactive)	4.49 µM (inactive)	19.4 µM (inactive)	–	0.583 µM (active)	13.3 µM (inactive)	2.77 µM (inactive)	3.81 µM (inactive)	5.43 µM (inactive)	3.17 µM (inactive)	5.92 µM (inactive)	7.89 µM (inactive)	3.99 µM (inactive)	25.4 µM (inactive)
N#Cc1c(N2CCOCC2)ncn(-c2ccc(Cl)cc2)c1=O	> 100 µM (inactive)	> 100 µM (inactive)	> 100 µM (inactive)	> 100 µM (inactive)	> 100 µM (inactive)	> 100 µM (inactive)	> 100 µM (inactive)	> 100 µM (inactive)	> 100 µM (inactive)	18.1 µM (inactive)	> 100 µM (inactive)	> 100 µM (inactive)	> 100 µM (inactive)	> 100 µM (inactive)	–	–	> 100 µM (inactive)	–	> 100 µM (inactive)	> 100 µM (inactive)
CCCCN1C(=O)N(c2ccc(OCC)cc2)C2N(CCCC)C1C(C)(C)C2(C)C (stereo unspecified)	15.7 µM (inactive)	23.5 µM (inactive)	30.3 µM (inactive)	30.3 µM (inactive)	19.2 µM (inactive)	30.1 µM (inactive)	47.4 µM (inactive)	7.71 µM (inactive)	15.3 µM (inactive)	–	16.9 µM (inactive)	14.9 µM (inactive)	23.2 µM (inactive)	23.5 µM (inactive)	24.2 µM (inactive)	16.3 µM (inactive)	31.6 µM (inactive)	44.1 µM (inactive)	22.4 µM (inactive)	51.3 µM (inactive)
C[C@]12OC[C@H](c3ccccc3)N1C(=O)C1[C@H]2CC12SCCS2 (stereo partly specified)	> 100 µM (inactive)	> 100 µM (inactive)	> 100 µM (inactive)	> 100 µM (inactive)	> 100 µM (inactive)	> 100 µM (inactive)	> 100 µM (inactive)	–	> 100 µM (inactive)	–	> 100 µM (inactive)	> 100 µM (inactive)	> 100 µM (inactive)	> 100 µM (inactive)	> 100 µM (inactive)	> 100 µM (inactive)	> 100 µM (inactive)	> 100 µM (inactive)	> 100 µM (inactive)	> 100 µM (inactive)
N=C(N)SCCSC(=N)N	> 100 µM (inactive)	> 100 µM (inactive)	> 100 µM (inactive)	> 100 µM (inactive)	> 100 µM (inactive)	> 100 µM (inactive)	> 100 µM (inactive)	> 100 µM (inactive)	> 100 µM (inactive)	–	> 100 µM (inactive)	> 100 µM (inactive)	> 100 µM (inactive)	> 100 µM (inactive)	> 100 µM (inactive)	> 100 µM (inactive)	> 100 µM (inactive)	> 100 µM (inactive)	> 100 µM (inactive)	> 100 µM (inactive)
